Experimental data published in patent US10314308B2, “Microbiocidal benzoxaboroles” (SYNGENTA PARTICIPATIONS AG, priority 2015, dated 2019).

How the values were obtained:
[1] = system: Glomerella Lagenarium(Colletotrichum Ladenarium); experiment: Glomerella lagenarium (Colletotrichum lagenarium) / liquid culture (anthracnose); format: cell-based; conditions: PDB potato dextrose broth, 24° C., 3-4 days after application, read-out: disease control (inhibition of growth, photometrically)
How it was run: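 Compound dissolved in DMSO was combined with potato dextrose broth carrying conidia taken directly from cryogenic storage. Photometric growth inhibition readings were taken after 3–4 days of incubation at 24 °C.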

[2] = system: Mycosphaerella Arachidis(Cercospora Arachidicola); experiment: Mycosphaerella arachidis (Cercospora arachidicola) / liquid culture (early leaf spot); format: cell-based; conditions: PDB potato dextrose broth, 24° C., 4-5 days after application, read-out: disease control (inhibition of growth, photometrically)
How it was run: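 Growth inhibition was read photometrically 4-5 days post-application, following incubation at 24 °C. Test compounds in DMSO were combined with fungal spores from cryogenic storage suspended in potato dextrose broth.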

Pythium Ultimum = experiment: Pythium ultimum / liquid culture (seedling damping off); format: cell-based; conditions: Globisporangium ultimum, potato dextrose broth, 24° C., 2-3 days after application, read-out: disease control (inhibition of growth, photometrically)
[3] = system: Monographella Nivalis(Microdochium Nivale); experiment: Monographella nivalis (Microdochium nivale) / liquid culture (foot rot cereals); format: cell-based; conditions: PDB potato dextrose broth, 24° C., 4-5 days after application, read-out: disease control (inhibition of growth, photometrically)
How it was run: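 Growth inhibition measured photometrically after 4-5 days at 24° C. Test compound in DMSO was combined with nutrient broth (PDB) carrying conidia taken directly from cryogenic storage.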

Gaeumannomyces Graminis = experiment: Gaeumannomyces graminis / liquid culture (take-all of cereals); format: cell-based; conditions: PDB potato dextrose broth, 24° C., 4-5 days after application, read-out: disease control (inhibition of growth, photometrically)
How it was run: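 Liquid-culture growth assay: compound delivered as DMSO solution, then fungal inoculum in potato dextrose broth added. Photometric read of growth inhibition after 4-5 days at 24° C.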

Sclerotinia Sclerotiorum = experiment: Sclerotinia sclerotiorum / liquid culture (cottony rot); format: cell-based; conditions: PDB potato dextrose broth, 24° C., 3-4 days after application, read-out: disease control (inhibition of growth, visually)
How it was run: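 Growth inhibition was read by eye 3-4 days post-application at 24° C. Compounds (DMSO solution) were combined with potato dextrose broth seeded with mycelia fragments from a newly grown liquid culture.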

[4] = system: Botryotinia Fuckeliana(Botrytis Cinerea); experiment: Botryotinia fuckeliana (Botrytis cinerea) / liquid culture (gray mould); format: cell-based; conditions: Vogels broth, 24° C., 3-4 days after application, read-out: disease control (inhibition of growth, photometrically)
Experimental: 9 Botryotinia Fuckeliana(Botrytis Cinerea)/Liquid Culture (Gray Mould) Conidia of the fungus from cryogenic storage were directly mixed into nutrient broth (Vogels broth). After placing a DMSO solution of test compound into a 96-well microtiter plate, the nutrient broth containing the fungal spores was added. The test plates were incubated at 24° C. and the inhibition of growth was determined photometrically 3-4 days after application.

[5] = system: Mycosphaerella Graminicola(Septoria Tritici); experiment: Mycosphaerella graminicola (Septoria tritici) / liquid culture (Septoria blotch); format: cell-based; conditions: Zymoseptoria tritici, PDB potato dextrose broth, 24° C., 4-5 days after application, read-out: disease control (inhibition of growth, photometrically)
How it was run: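 Growth inhibition measured by photometry 4-5 days post-application, at 24 °C, in liquid culture of spores taken straight from cryogenic storage into potato dextrose broth, with test compound supplied in DMSO.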

Phytophthora Infestans = experiment: whole plant or invertebrate; format: in vivo; conditions: in Solanum lycopersicum, foliar, read-out: disease control
[6] = system: Thanatephorus Cucumeris(Rhizoctonia Solani); experiment: Thanatephorus cucumeris (Rhizoctonia solani) / liquid culture (foot rot, damping-off); format: cell-based; conditions: PDB potato dextrose broth, 24° C., 3-4 days after application, read-out: disease control (inhibition of growth, photometrically)
How it was run: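 Photometric growth-inhibition read 3-4 days after treatment at 24° C. Compounds applied from DMSO at 200 ppm, then fungal mycelium fragments in PDB broth added.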

Fusarium Culmorum = experiment: microbe, parasite or virus in culture; format: cell-based; conditions: read-out: disease control (inhibition of growth, photometrically)
Plasmopara Viticola = experiment: whole plant or invertebrate; format: in vivo; conditions: foliar, read-out: disease control
[7] = system: Phaeosphaeria Nodorum (Septoria Nodorum); experiment: Phaeosphaeria nodorum (Septoria nodorum) / wheat / leaf disc preventative (glume blotch); format: in vivo; conditions: Parastagonospora nodorum, foliar, wheat leaf segments cv Kanzler, inoculated 2 days after application, assessed 5-7 days after application, read-out: disease control
How it was run: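 Wheat cv Kanzler leaf discs on agar were sprayed with formulated compound, then inoculated with spores 2 days later. Incubation at 20° C, 75% RH, 12/12 h light/dark; percent disease control versus untreated assessed 5-7 days after application.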

[8] = system: Puccinia Recondita f. sp. Tritici; experiment: Puccinia recondita f. sp. tritici / wheat / leaf disc preventative (brown rust); format: in vivo; conditions: foliar, wheat leaf segments cv Kanzler, inoculated 1 day after application, assessed 7-9 days after application, read-out: disease control
Experimental: 3 Puccinia Recondita f. sp. Tritici/Wheat/Leaf Disc Preventative (Brown Rust) Wheat leaf segments cultivated variety (cv) Kanzler were placed on agar in 24-well plates and sprayed with formulated test compound diluted in water. The leaf disks were inoculated with a spore suspension of the fungus 1 day after application. The inoculated leaf segments were incubated at 19° C. and 75% relative humidity under a light regime of 12/12 h (light/dark) in a climate cabinet and the activity of a compound was assessed as percent disease control compared to untreated when an appropriate level of disease damage appears in untreated check leaf segments (7-9 days after application).

## Cc1noc(-c2cc3c(cc2F)COB3O)n1 [Compound 30, 5-(5-fluoro-1-hydroxy-3H-2,1-benzoxaborol-6-yl)-3-methyl-1,2,4-oxadiazole]
other
  melting point: 200 to 202 °C
[1]
  inhibition at 20 ppm: ≥ 80%
[2]
  inhibition at 20 ppm: ≥ 80%
Pythium Ultimum
  inhibition at 20 ppm: ≥ 80%
[3]
  inhibition at 20 ppm: ≥ 80%
Gaeumannomyces Graminis
  inhibition at 20 ppm: ≥ 80%
Sclerotinia Sclerotiorum
  inhibition at 20 ppm: ≥ 80%
[4]
  inhibition at 20 ppm: ≥ 80%
[5]
  inhibition at 20 ppm: ≥ 80%
Phytophthora Infestans
  pest or weed control at 200 ppm: ≥ 80%

## CC(=O)c1ccc(-c2cc3c(cc2Cl)COB3O)o1 [Compound 39]
[1]
  inhibition at 20 ppm: ≥ 80%
[2]
  inhibition at 20 ppm: ≥ 80%
Pythium Ultimum
  inhibition at 20 ppm: ≥ 80%
[6]
  inhibition at 20 ppm: ≥ 80%
[3]
  inhibition at 20 ppm: ≥ 80%
Fusarium Culmorum
  inhibition at 20 ppm: ≥ 80%
Gaeumannomyces Graminis
  inhibition at 20 ppm: ≥ 80%
Plasmopara Viticola
  pest or weed control at 200 ppm: ≥ 80%
Phytophthora Infestans
  pest or weed control at 200 ppm: ≥ 80%

## N#Cc1cscc1-c1cc2c(cc1Cl)COB2O [Compound 42]
[7]
  pest or weed control at 200 ppm: ≥ 80%
[1]
  inhibition at 20 ppm: ≥ 80%
[2]
  inhibition at 20 ppm: ≥ 80%
Pythium Ultimum
  inhibition at 20 ppm: ≥ 80%
[3]
  inhibition at 20 ppm: ≥ 80%
Fusarium Culmorum
  inhibition at 20 ppm: ≥ 80%
Gaeumannomyces Graminis
  inhibition at 20 ppm: ≥ 80%
Sclerotinia Sclerotiorum
  inhibition at 20 ppm: ≥ 80%
[5]
  inhibition at 20 ppm: ≥ 80%
Plasmopara Viticola
  pest or weed control at 200 ppm: ≥ 80%
Phytophthora Infestans
  pest or weed control at 200 ppm: ≥ 80%

## Cc1cc(-c2cc3c(cc2F)COB3O)c(C#N)o1 [Compound 56]
[2]
  inhibition at 20 ppm: ≥ 80%
Pythium Ultimum
  inhibition at 20 ppm: ≥ 80%
[6]
  inhibition at 20 ppm: ≥ 80%
[3]
  inhibition at 20 ppm: ≥ 80%
Gaeumannomyces Graminis
  inhibition at 20 ppm: ≥ 80%
Plasmopara Viticola
  pest or weed control at 200 ppm: ≥ 80%
[8]
  pest or weed control at 200 ppm: ≥ 80%
Phytophthora Infestans
  pest or weed control at 200 ppm: ≥ 80%

## COc1c(-c2nnco2)ccc2c1B(O)OC2 [Compound 93]
other
  melting point: 176 to 178 °C
[1]
  inhibition at 20 ppm: ≥ 80%
[2]
  inhibition at 20 ppm: ≥ 80%
Pythium Ultimum
  inhibition at 20 ppm: ≥ 80%
Gaeumannomyces Graminis
  inhibition at 20 ppm: ≥ 80%
Phytophthora Infestans
  pest or weed control at 200 ppm: ≥ 80%

## OB1OCc2cc(Cl)c(-c3nnco3)cc21 [Compound 94]
other
  melting point: 202 to 204 °C
[7]
  pest or weed control at 200 ppm: ≥ 80%
[1]
  inhibition at 20 ppm: ≥ 80%
[2]
  inhibition at 20 ppm: ≥ 80%
Pythium Ultimum
  inhibition at 20 ppm: ≥ 80%
Gaeumannomyces Graminis
  inhibition at 20 ppm: ≥ 80%
Sclerotinia Sclerotiorum
  inhibition at 20 ppm: ≥ 80%
[5]
  inhibition at 20 ppm: ≥ 80%
Phytophthora Infestans
  pest or weed control at 200 ppm: ≥ 80%

## OB1OCc2cc(F)c(-c3nnco3)cc21 [Compound 95]
other
  melting point: 237 to 239 °C
[1]
  inhibition at 20 ppm: ≥ 80%
[2]
  inhibition at 20 ppm: ≥ 80%
Pythium Ultimum
  inhibition at 20 ppm: ≥ 80%
Gaeumannomyces Graminis
  inhibition at 20 ppm: ≥ 80%
Sclerotinia Sclerotiorum
  inhibition at 20 ppm: ≥ 80%
Phytophthora Infestans
  pest or weed control at 200 ppm: ≥ 80%

## OB1OCc2cc(F)c(-c3ncon3)cc21 [Compound 97]
other
  melting point: 226 to 228 °C
[7]
  pest or weed control at 200 ppm: ≥ 80%
[1]
  inhibition at 20 ppm: ≥ 80%
[2]
  inhibition at 20 ppm: ≥ 80%
Pythium Ultimum
  inhibition at 20 ppm: ≥ 80%
[6]
  inhibition at 20 ppm: ≥ 80%
[3]
  inhibition at 20 ppm: ≥ 80%
Fusarium Culmorum
  inhibition at 20 ppm: ≥ 80%
Gaeumannomyces Graminis
  inhibition at 20 ppm: ≥ 80%
Sclerotinia Sclerotiorum
  inhibition at 20 ppm: ≥ 80%
[4]
  inhibition at 20 ppm: ≥ 80%
[5]
  inhibition at 20 ppm: ≥ 80%
Phytophthora Infestans
  pest or weed control at 200 ppm: ≥ 80%
